Test results from patent US6596724B2, “Oxadiazole and thiadiazole derivatives of dihydropyridine NPY antagonists” (Bristol-Myers Squibb Company, priority 2000, dated 2003).
Values belong to the compound of their own block, whether it stands above or below them.

Legend:
[1] = molecular target: T1, I-125 Bolton-Hunter labeled NPY in human neuroblastoma cells (SK-N-MC) (Homo sapiens, UniProt P25929); conditions: cited from earlier work
T1 construct: displaces I-125 Bolton-Hunter labeled NPY in human neuroblastoma cells (SK-N-MC); host or cells: SK-N-MC human neuroblastoma cells (endogenous receptor)
T1 sequence (P25929 1-384): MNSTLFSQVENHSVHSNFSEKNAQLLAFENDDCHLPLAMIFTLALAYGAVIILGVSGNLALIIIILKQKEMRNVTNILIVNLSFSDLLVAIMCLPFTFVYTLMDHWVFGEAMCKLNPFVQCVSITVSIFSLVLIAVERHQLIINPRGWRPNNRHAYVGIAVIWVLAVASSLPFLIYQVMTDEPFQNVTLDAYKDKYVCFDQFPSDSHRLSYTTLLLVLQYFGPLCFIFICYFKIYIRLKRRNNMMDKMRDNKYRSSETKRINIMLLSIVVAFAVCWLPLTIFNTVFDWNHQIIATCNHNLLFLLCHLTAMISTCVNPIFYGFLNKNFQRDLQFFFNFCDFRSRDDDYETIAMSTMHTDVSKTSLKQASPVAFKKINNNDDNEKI

[2] = system: NPY-induced increase in intracellular Ca++ in SK-N-MC cells; conditions: cited from earlier work
[3] = system: NPY-induced pressor response; conditions: pithed rat; cited from earlier work
[4] = system: NPY-induced contractions in guinea pig basilar artery; conditions: cited from earlier work
[5] = molecular target: T2, I-125 labeled NPY and PYY in human neuroblastoma cells (Homo sapiens, UniProt P25929); conditions: cited from earlier work
T2 construct: displacing I-125 labeled NPY and PYY in human neuroblastoma cells
T2 sequence (P25929 1-384): T1 sequence (P25929 1-384)

[6] = system: NPY-related increases in diastolic blood pressure; conditions: anesthetized guinea pig model; cited from earlier work

- melting point: 113 to 116 °C
SMILES: COC(=O)C1=C(C)NC(C)=C(C(=O)OC)C1c1cccc(NC(=S)NNC(=O)CN2CCC(c3cccc(OC)c3)CC2)c1 [Example 20, 4-[3-[[[2-[[4-(3-Methoxyphenyl)-1-piperidinyl)acetyl]-hydrazino]-carbonothioyl]amino]phenyl]1,4-dihydro-2,6-dimethyl-3,5-pyridinedicarboxylic acid, dimethyl ester]

- melting point: 114 to 120 °C
SMILES: COC(=O)C1=C(C)NC(C)=C(C(=O)OC)C1c1ccc(F)c(NC(=S)NNC(=O)CN2CCC(c3cccc(OC)c3)CC2)c1 [Example 22, 4-[4-Fluoro-3-[[[2-[[4-(3-methoxyphenyl)-1-piperidinyl]acetyl]-hydrazino]-carbonothioyl]amino]phenyl]1,4-dihydro-2,6-dimethyl-3,5-pyridinedicarboxylic acid, dimethyl ester]

Second part, the compound before the results:

SMILES: NC(N)=NCCC[C@@H](NC(=O)C(c1ccccc1)c1ccccc1)C(=O)NCc1ccc(O)cc1 [BIBP 3226]
- displacement of I-125 Bolton-Hunter labeled NPY [1]: displaces
- antagonism of NPY-induced increase in intracellular Ca++ [2]: antagonized
- antagonism of NPY-induced pressor response [3]: antagonizing

SMILES: O=P(O)(O)OC1[C@H](OP(=O)(O)O)[C@H](O)C(O)[C@H](O)[C@H]1OP(=O)(O)O (stereo partly drawn) [D-Myo-inositol-1,2,6-triphosphate]
- antagonism of NPY-induced contractions [4]: potent but non-competitive antagonist

SMILES: COC(=O)C1=C(C)NC(C)=C(C(=O)OC)C1c1cccc(NC(=O)NNC(=O)CN2CCC(c3ccccc3)CC2)c1 [Example 18, 4-[3-[[[2-[(4-Phenyl-1-piperidinyl)acetyl]-hydrazino]-carbonyl]amino]phenyl]1,4-dihydro-2,6-dimethyl-3,5-pyridinedicarboxylic acid, dimethyl ester]
- melting point: 138 to 143 °C

SMILES: COC(=O)C1=C(C)NC(C)=C(C(=O)OC)C1c1cccc(NC(=S)NNC(=O)CN2CCC(c3ccccc3)CC2)c1 [Example 19, 4-[3-[[[2-[(4-Phenyl-1-piperidinyl)acetyl]-hydrazino]-carbonothioyl]amino]phenyl]1,4-dihydro-2,6-dimethyl-3,5-pyridinedicarboxylic acid, dimethyl ester]
- melting point: 125 to 130 °C

SMILES: CN(C)CC1CCC(CN=C(N)c2ccc(C[C@@H](NC(=O)[C@@H](Cc3ccccc3)NS(=O)(=O)c3ccc4ccccc4c3)C(=O)N3CCCC3)cc2)CC1 (stereo partly shown) [SR 120819A]
- displacement of I-125 labeled NPY and PYY [5]: displacing
- antagonism of NPY-related increases in diastolic blood pressure [6]: antagonized
